We go through one compound from US11395815B2, “Compound for treating osteoarthritis” (Ascentage Pharma (Suzhou) Co., Ltd., priority 2018, dated 2022).

In test [1] the test system is mouse ACLT model. As to the kind of experiment: Weight bearing test in mouse osteoarthritis (ACLT) model. It counts as in vivo. The conditions noted are these: for weight bearing % (weight on operated limb versus contralateral unoperated limb): 13 days after first dose. An excerpt:
C57BL/6 mice aged 10 weeks were used for the study (n=12 for each group). Anterior cruciate ligament transection (ACLT) model was used to simulate the pathological condition in OA. To conduct ACLT surgery, the joint capsule of the right rear limb of mice was opened, and the anterior cruciate ligament (ACL) was transected with micro-scissors under a surgical microscope. After irrigation with saline to remove tissue debris, the skin incision was closed. Blank vehicle contained 5% Pluronic F68 (BASF, Germany) in 10 mM phosphate buffered saline (PBS, NaH2PH4/Na2HPO4) with pH adjusted to 7.4. Before each injection and sacrificing at the end point, the function of the limbs was assessed by a weight bearing test. All the mice were sacrificed for pathological evaluation and immunohistochemical staining 13 days after first dosing. Weight bearing test was conducted using a […] model 600MR (IITC Life Science, CA, USA). Briefly, after calibration of the equipment, mice were placed inside the chamber to stand with each hind paw on a scale, allowed to stand for 5-10 s until the readings were stable. The readings reflected the weight that was placed on each hind limb. The ACLT surgery caused osteoarthritis (OA) and decreased the weight placed on the hind limb. The results were expressed as the percentage of the weight placed on the operated limb versus the contralateral unoperated limb (weight bearing %). The value of weight bearing % is expected to be 100 in healthy mice, indicating the same weight placed on both limbs. The value of weight bearing % will decrease to 50˜60 after ACLT surgery due to less weight that could be placed on the operated limb than the unoperated limb. Alleviation of joint pain by […] should be reflected by an increased value of weight bearing %.

For test [2], the system named is mouse ACLT model. Briefly: Pathological evaluation of mouse joints (safranin O staining) in ACLT model. The test is classed as in vivo. Particulars: intra-articular, joints taken 13 days after first dosing, safranin O sections. An excerpt:
C57BL/6 mice aged 10 weeks were used for the study (n=12 for each group). Anterior cruciate ligament transection (ACLT) model was used to simulate the pathological condition in OA. To conduct ACLT surgery, the joint capsule of the right rear limb of mice was opened, and the anterior cruciate ligament (ACL) was transected with micro-scissors under a surgical microscope. After irrigation with saline to remove tissue debris, the skin incision was closed. Blank vehicle contained 5% Pluronic F68 (BASF, Germany) in 10 mM phosphate buffered saline (PBS, NaH2PH4/Na2HPO4) with pH adjusted to 7.4. Before each injection and sacrificing at the end point, the function of the limbs was assessed by a weight bearing test. All the mice were sacrificed for pathological evaluation and immunohistochemical staining 13 days after first dosing. Mouse joints were fixed in 4% paraformaldehyde overnight, dehydrated in increasing concentrations of ethanol and embedded in paraffin. Sections (5 μm) were cut from the paraffin blocks and applied to glass slides. The sections were stained for proteoglycans with aqueous safranin O (0.1%) for 5 min, and the specimens were then mounted.

Regarding `CCN1[C@@H](C(=O)NC23CCC(C(=O)O)(CC2)CC3)[C@H](c2cccc(Cl)c2F)[C@]2(C(=O)Nc3cc(Cl)ccc32)C12CCCCC2` [compound A], the “weight bearing % (weight on operated limb versus contralateral unoperated limb)” value in test [1] (0.01 μmol (1 mM, 10 uL) intra-articular, compared with untreated control (P<0.05) and vehicle control (P<0.0001)) was “significantly increased value of weight bearing %”; in test [1] (0.05 μmol (5 mM, 10 uL) intra-articular, P<0.05 vs 1 mM compound A group), “further increase in the value of weight bearing %”; in test [1] (C57BL/6 mice, ACLT, intra-articular injection, across doses 0.01 and 0.05 μmol), “dose-dependent effect in improving weight bearing %”. Also, in test [1] (mouse ACLT model, intra-articular injection), the joint pain result is reported as “significantly relieved the joint pain”. In test [2], the cartilage development entry is given as “increased cartilage development”. Further, the “pathological changes (articular cartilage erosion, proteoglycan loss, thinning and calcification of articular cartilage)” value in test [2] is “attenuated”.
